Converted amounts (≈) assume the structure as drawn. Where two headings read alike, the source gives them in different places.
Key:
Format in all cases: physicochemical
[1] = Photostability at solid state (chemical purity by HPLC after illumination); conditions: solid-state, unsealed clear glass bottles, forced illumination
Method: (§1) The method for determining purity by HPLC—used throughout these examples—used the following parameters:
(§2) The photostability of novel crystalline forms of QTX125 was assessed at solid state and in solution. Where ‘forced illumination’ conditions were used, samples were illuminated at 12 Klux/hour and 2.8 UV W/m^2/hour. Samples were stored at a temperature of 30° C. Following incubation, the chemical purity of QTX125 was measured by HPLC.
(§3) The following index is provided to aid navigation of the data presented in Tables 3.1.1 to 3.3.6: • 3.1.x—Assessment of the photostability of QTX125 Form 2. • 3.2.x—Assessment of the photostability of amorphous QTX125. • 3.3.x—Assessment of the photostability of the QTX125 1:2 L-Lysine adduct. • 3.x.1—Samples (at solid state) stored in unsealed clear glass bottles, subject to forced illumination. • 3.x.2—Samples (at solid state) sealed under nitrogen in clear glass bottles, subject to forced illumination. • 3.x.3—Samples (at solid state) sealed under nitrogen in amber glass bottles, illuminated under ambient laboratory conditions • 3.x.4—Samples (at solid state) sealed under nitrogen in amber glass bottles, subject to forced illumination. • 3.x.5—Samples (in solution) sealed under nitrogen in amber glass bottles, illuminated under ambient laboratory conditions. • 3.x.6—Samples (in solution) sealed under nitrogen in amber glass bottles, subject to forced illumination.

[2] = Photostability in solution (THF and water), HPLC; conditions: in solution (THF and water), sealed under nitrogen in amber glass bottles; for degradation (in words): up to 171 hours
Method: as §1, §2, §3

[3] = Aqueous solubility at 37° C. (HPLC of filtered suspension); conditions: 37° C.
Method: The solubility of novel crystalline forms of QTX125 was assessed in the following aqueous solutions: (i) phosphate buffer, pH 3.5, 0.9% w/v sodium chloride; (ii) phosphate buffer, pH 6.5, 0.9% w/v sodium chloride; (iii) acetate buffer, pH 4.5, 0.9% w/v sodium chloride; (iv) citro-phosphate buffer, pH 4.5, 0.9% w/v sodium chloride; (v) sodium chloride, 0.9% w/v and (vi) deionised water. All assays were completed at 37° C.
In brief, 30 mg QTX125 was dispensed into vessels followed by 5 mL of the appropriate aqueous buffer. Mixtures were suspended by agitation and heated to 37° C. At various fixed intervals, an 0.4 mL aliquot of the suspension was removed, filtered and diluted for examination by HPLC. A single HPLC reference sample was used.

[4] = ambient laboratory conditions, 0 hours
[5] = ambient laboratory conditions, 3 hours
[6] = ambient laboratory conditions, 26 hours
[7] = ambient laboratory conditions, 171 hours
[8] = ambient laboratory conditions, 171 hours, listed as Form 2
[9] = forced illumination, 171 hours, listed as Form 2
[10] = 0.9% w/v sodium chloride solution, saline or isotonic, thermodynamic from solid, buffer (v) sodium chloride, 0.9% w/v, read-out: concentration of QTX125 (solubility)
[11] = acetate buffer with 0.9% w/v sodium chloride, aqueous buffer, thermodynamic from solid, buffer (iii) acetate buffer, pH 4.5, 0.9% w/v sodium chloride, read-out: concentration of QTX125 (solubility)
[12] = citro-phosphate buffer with 0.9% w/v sodium chloride, aqueous buffer, thermodynamic from solid, buffer (iv) citro-phosphate buffer, pH 4.5, 0.9% w/v sodium chloride, read-out: concentration of QTX125 (solubility)
[13] = phosphate buffer with 0.9% w/v sodium chloride, aqueous buffer, thermodynamic from solid, buffer (i) phosphate buffer, pH 3.5, 0.9% w/v sodium chloride, read-out: concentration of QTX125 (solubility)
[14] = phosphate buffer with 0.9% w/v sodium chloride, aqueous buffer, thermodynamic from solid, buffer (ii) phosphate buffer, pH 6.5, 0.9% w/v sodium chloride, read-out: concentration of QTX125 (solubility)
[15] = thermodynamic from solid, buffer (vi) deionised water, read-out: concentration of QTX125 (solubility)

## O=C(NO)c1ccc(CNC(=O)c2[nH]c(-c3ccc(O)cc3)cc2-c2ccoc2)cc1 [QTX125 Form 2, 3-(3-Furyl)-N-{4-[(hydroxyamino)carbonyl]benzyl}-5-(4-hydroxyphenyl)-1H-pyrrole-2-carboxamide]
[1]; 171 hours
  HPLC peak area, RRT 1.04: 9.15%
  HPLC peak area, RRT 1.12: 0.52%
[1]; up to 171 hours
  degradation (in words): degrade to two principal components
[2]; [4]
  HPLC peak area, QTX125 RRT 1.00: 98.21%
  HPLC peak area, RRT 1.04: 0.98%
[2]; [5]
  HPLC peak area, QTX125 RRT 1.00: 97.50%
  HPLC peak area, RRT 1.04: 1.06%
[2]; [6]
  HPLC peak area, QTX125 RRT 1.00: 97.65%
  HPLC peak area, RRT 1.04: 0.93%
[2]; [7]
  HPLC peak area, QTX125 RRT 1.00: 91.10%
  HPLC peak area, RRT 1.04: 4.81%
  HPLC peak area, RRT 1.12: 0.83%
[2]; [8]
  HPLC peak area, QTX125 RRT 1.00: 91.10%
  HPLC peak area, RRT 1.04: 4.81%
  HPLC peak area, RRT 1.12: 0.83%
[2]; ambient laboratory conditions
  degradation (in words): degrade
[2]; forced illumination, 0 hours
  HPLC peak area, QTX125 RRT 1.00: 98.21%
  HPLC peak area, RRT 1.04: 0.98%
[2]; forced illumination, 3 hours
  HPLC peak area, QTX125 RRT 1.00: 97.30%
  HPLC peak area, RRT 1.04: 1.07%
[2]; forced illumination, 26 hours
  HPLC peak area, QTX125 RRT 1.00: 96.27%
  HPLC peak area, RRT 1.04: 1.09%
[2]; forced illumination, 171 hours
  HPLC peak area, QTX125 RRT 1.00: 81.65%
  HPLC peak area, RRT 1.04: 3.60%
  HPLC peak area, RRT 1.12: 0.86%
[2]; [9]
  HPLC peak area, QTX125 RRT 1.00: 81.65%
  HPLC peak area, RRT 1.04: 3.60%
  HPLC peak area, RRT 1.12: 0.86%
[2]; forced illumination
  degradation (in words): degrade
[3]; [10]
  solubility at 1 h: 0.68 µg/mL (≈ 1.63 µM)
  solubility at 4 h: 0.26 µg/mL (≈ 0.623 µM)
  solubility at 24 h: 0.81 µg/mL (≈ 1.94 µM)
[3]; 0.9% w/v sodium chloride solution, saline or isotonic, thermodynamic from solid, buffer (v) sodium chloride, 0.9% w/v, 7 hours, read-out: concentration of QTX125 (solubility)
  solubility at 7 h: 0.22 µg/mL (≈ 0.527 µM)
[3]; [11]
  solubility at 1 h: 0.25 µg/mL (≈ 0.599 µM)
  solubility at 4 h: 0.29 µg/mL (≈ 0.695 µM)
  solubility at 24 h: 0.5 µg/mL (≈ 1.2 µM)
[3]; acetate buffer with 0.9% w/v sodium chloride, aqueous buffer, thermodynamic from solid, buffer (iii) acetate buffer, pH 4.5, 0.9% w/v sodium chloride, 7 hours, read-out: concentration of QTX125 (solubility)
  solubility at 7 h: 0.19 µg/mL (≈ 0.455 µM)
[3]; aqueous buffers (i) to (v), aqueous buffer, thermodynamic from solid, buffers (i) to (v), 1 to 24 hours, read-out: concentration values range (solubility)
  solubility: 0.15 to 1.76 µg/mL (≈ 0.359 to 4.22 µM)
[3]; buffer (vi) deionised water, 7 hours
  concentration of QTX125 (solubility): 27.82 µg/mL
[3]; buffers (i) to (v)
  solubility (in words): very low
[3]; [12]
  solubility at 1 h: 0.32 µg/mL (≈ 0.767 µM)
  solubility at 4 h: 0.17 µg/mL (≈ 0.407 µM)
  solubility at 24 h: 0.4 µg/mL (≈ 0.958 µM)
[3]; citro-phosphate buffer with 0.9% w/v sodium chloride, aqueous buffer, thermodynamic from solid, buffer (iv) citro-phosphate buffer, pH 4.5, 0.9% w/v sodium chloride, 7 hours, read-out: concentration of QTX125 (solubility)
  solubility at 7 h: 0.17 µg/mL (≈ 0.407 µM)
[3]; deionised water (vi)
  PXRD analysis of the solid recovered at 24 hours: confirmed the entity as Form 2
[3]; [13]
  solubility at 1 h: 0.77 µg/mL (≈ 1.84 µM)
  solubility at 4 h: 0.15 µg/mL (≈ 0.359 µM)
  solubility at 24 h: 1.76 µg/mL (≈ 4.22 µM)
[3]; phosphate buffer with 0.9% w/v sodium chloride, aqueous buffer, thermodynamic from solid, buffer (i) phosphate buffer, pH 3.5, 0.9% w/v sodium chloride, 7 hours, read-out: concentration of QTX125 (solubility)
  solubility at 7 h: 0.5 µg/mL (≈ 1.2 µM)
[3]; [14]
  solubility at 1 h: 0.33 µg/mL (≈ 0.791 µM)
  solubility at 4 h: 0.15 µg/mL (≈ 0.359 µM)
  solubility at 24 h: 0.63 µg/mL (≈ 1.51 µM)
[3]; phosphate buffer with 0.9% w/v sodium chloride, aqueous buffer, thermodynamic from solid, buffer (ii) phosphate buffer, pH 6.5, 0.9% w/v sodium chloride, 7 hours, read-out: concentration of QTX125 (solubility)
  solubility at 7 h: 0.34 µg/mL (≈ 0.815 µM)
[3]; [15]
  solubility at 1 h: 17.8 µg/mL (≈ 42.6 µM)
  solubility at 4 h: 22.4 µg/mL (≈ 53.6 µM)
  solubility at 24 h: 16.6 µg/mL (≈ 39.7 µM)
[3]; thermodynamic from solid, deionised water (buffer vi), following 7 hours of incubation, read-out: peak solubility
  solubility at 7 h: 27.8 µg/mL (≈ 66.6 µM)

Source: patent US20260070895A1, “CRYSTALLINE FORMS” (QUIMATRYX, S.L., priority 2022, published 2026)
